Data as given in patent US6603023B2 (priority 1996, dated 2003).
“And” between values parts separate entries of the source, which are not always exact repeats. Identical values can stand only once. Counter-ions that a name gives are not always drawn. Like-named read-outs stand apart in the source and are kept apart here.

Tests used:
MCF-7/Adr = test: cells; format: cell-based, human; settings: Homo sapiens, NCI/ADR-RES, 72 h
Protocol: Cultures were fixed with trichloroacetic acid and then stained for 30 min with 0.4% suforhodamine B dissolved in 1% acetic acid. Unbound dye was removed by acetic acid washes, and the protein-bound dye was extracted with an unbuffered Tris base (tris(hydroxy-methyl)aminomethane) for determination of absorbance at 570 nm in a 96-well microtiter plate reader. The experiments were carried out in duplicate. Each run entailed six to seven concentrations of the tested drugs.

[1] = system: DC-3F hamster lung fibroblast cell line; test: SRB cytotoxicity, DC-3F; format: cell-based; settings: Mesocricetus auratus, DC3F, 72 h, Table 1C; SRB
How it was run: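 Monolayer cultures grown in RPMI 1640-10% FBS at 37 °C, 5% CO2, with resistant sublines kept under their selecting agent. Cytotoxicity determined by SRB protein staining (TCA fixation, absorbance 570 nm) in duplicate at six to seven drug concentrations. ED50 obtained by median-effect plot analysis.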

[2] = system: CCRF-CEM human T-cell acute lymphoblastic leukemia cell line; test: XTT cytotoxicity (cell growth inhibition), CCRF-CEM; settings: Homo sapiens, CCRF-CEM, 72 h, Table 1A; XTT
How it was run: (§1)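 Cells seeded at 5×10^4 cells/mL in RPMI-1640 + 10% heat-inactivated FBS, 37 °C/5% CO2; resistant lines cultured continuously with selecting agent. 72 h drug incubation. XTT (1 mg/mL) mixed with PMS to 0.025 mM PMS, 4 h, read 450 nm/630 nm.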

[3] = system: human neuroblastoma SK-N-As; test: SRB cytotoxicity, SK-N-As; format: cell-based; settings: Homo sapiens, SK-N-AS, 72 h
Protocol: (§2) The DC-3F hamster lung fibroblast cell line and its actinomycin D-selected sublines (DC-3F/ADII and DC-3F/ADX) were obtained from the Memorial Sloan-Kettering Cancer Center (MSKCC).
(§3) The drug-resistant cell lines were continuously cultured in the presence of the selecting agent, AD, DX, VBL or VM to maintain the drug resistant phenotypes. […] All cells were cultured in RPMI 1640-10% FBS at 37° C. 5% CO2 (see below).
(§4) The cytotoxicity of the drug toward the monolayer cell cultures (such as DC-3F, MCF-7, SK-N-As and sublines) was determined in 96-well microtiter plates by the SRB method as described by Skehan and co-workers (Skehan, P., et al., J. Natl. Cancer Inst. 1990, 82, 1107-1112) for measuring the cellular protein content. Cultures were fixed with trichloroacetic acid and then stained for 30 min with 0.4% suforhodamine B dissolved in 1% acetic acid. Unbound dye was removed by acetic acid washes, and the protein-bound dye was extracted with an unbuffered Tris base (tris(hydroxy-methyl)aminomethane) for determination of absorbance at 570 nm in a 96-well microtiter plate reader. The experiments were carried out in duplicate. Each run entailed six to seven concentrations of the tested drugs. Data were analyzed with the median-effect plot (Chou, T.-C. & Talalay, P. T. (1984) Adv. Enzyme Regul. 22, 27-55) using a previously described computer program (Chou, J., & Chou T.-C. 1987, Dose-effect analysis with microcomputers: Quantitation of ED50, synergism, antagonism, low-dose risk, reception-ligand binding and enzyme kinetics, IBM-PC software and manual, Biosoft, Cambridge, U.K.).

DC-3F/ADX = test: cells; format: cell-based, hamster; settings: DC3F/ADX, 72 h, Table 1C; SRB
How it was run: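 Hamster lung fibroblast DC-3F sublines selected with actinomycin D (ADII moderate, ADX very strong MDR), maintained under selecting agent in RPMI 1640-10% FBS at 37° C. Monolayers exposed to six to seven drug concentrations in duplicate, TCA-fixed, stained with 0.4% SRB; absorbance 570 nm, analyzed by median-effect plot.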

in vivo = settings: male, athymic nude (nu/nu), outbred, Swiss background, mouse, in vivo, ip
Protocol: (§5) DMSO was used as a vehicle for epothilones. Each mouse received ≦40 μL DMSO in all experiments.
(§6) Athymic nude mice (nu/nu) were used for MX-1 and MCF-7/Adr human mammary carcinoma xenografts. Mice were obtained from Taconic Laboratory Animals and Service (Germantown, N.Y.: outbred, Swiss background).

[4] = system: MDR human mammary adenocarcinoma MCF-7/Adr xenograft; test: in vivo
Protocol: as §5, §6

murine leukemic P388/0 = test: XTT cytotoxicity, P388/0; format: cell-based; settings: Mus musculus, P388, 72 h
Protocol: as §2, §3
(§7) The cells were cultured at an initial density of 5×10^4 cells/mL. They were maintained in a 5% CO2-humidified atmosphere at 37° C. in RPMI-1640 medium (GIBCO-BRL, Gaithersburg, Md.) containing penicillin (100 U/mL), streptomycin ([…]) (GIBCO-BRL) and 10% heat inactivate fetal bovine serum. Culture for cell suspension (such as for CCRF-CEM, P388 and sublines), were performed by the XTT-microculture tetrazonium method (Scudiero, D. A. et al., Cancer Res. 1988, 48, 4827-4833) in duplicate in 96-well microtiter plates.
(§8) 2′,3′-Bis(methoxy-4-nitro-5-sufophenyl)-5-[(phenylamino)carbonyl]2H-tetrazolium hyudroxide (XTT) was prepared at 1 mg/mL in prewarmed (37° C.) medium without serum. Phenazine methosulfate (PMS) and fresh XTT were mixed together to obtain 0.025 mM PMS-XTT solution (25 μL of the stock 5 mM PMS was added per 5 mL of 1 mg/mL XTT). Following a 72 h incubation, 50 μL of the assay aliquots were added to each well of the cell culture. After incubation at 37° C. for 4 h, absorbance at 450 nm and 630 nm was measured with a microplate reader (EL340, Bio-Tek Instruments, Inc., Winooski, Vt.).

SK-N-FI = test: cells; format: cell-based, human; settings: Homo sapiens, SK-N-FI, 72 h
Protocol: as §3, §4

P388/Adr = test: cells; format: cell-based, murine; settings: Mus musculus, P388/ADR, 72 h
Protocol: as §3, §7, §8

CCRF-CEM/Taxol® = test: cells; format: cell-based, human; settings: Homo sapiens, CCRF-CEM, 72 h
How it was run: as §1

CCRF-CEM/VBL100 = test: cells; format: cell-based, human; settings: Homo sapiens, CCRF-CEM, 72 h, Table 1A; XTT
How it was run: as §1

CCRF-CEM/VM1 = test: cells; format: cell-based, human; settings: Homo sapiens, CCRF-CEM, 72 h, Table 1A; XTT
How it was run: as §1

[5] = system: human mammary carcinoma MX-1 xenograft
Protocol: as §5, §6

MCF-7 = test: SRB cytotoxicity, MCF-7; format: cell-based, human; settings: Homo sapiens, MCF7, 72 h
Protocol: as §4

[6] = high doses: Taxol 12, Adriamycin 3, Camptothecin 3.0 mg/kg i.p. day 8,10,12,14,16
[7] = male, athymic nude (nu/nu), outbred, Swiss background, mouse, in vivo

SMILES: COc1cccc2c1C(=O)c1c(O)c3c(c(O)c1C2=O)C[C@@](O)(C(=O)CO)C[C@@H]3O[C@H]1C[C@H](N)[C@H](O)[C@H](C)O1 [Adriamycin, doxorubicin or adriamycin HCl]
- IC50 (MCF-7/Adr): 216 nM
- IC50 [1]: 18 nM
- IC50 [2]: 36 nM
- IC50 [3]: 77 nM
- IC50 (DC-3F/ADX): 2240 nM
- LD50 (in vivo): 3 mg/kg
- tumor growth suppression ([4]; DX 2 mg/kg): slight growth suppression
- Average Tumor Volume (T/C), Day 11 [4, 6]: 0.66 T/C
- Average Tumor Volume (T/C), Day 13 [4, 6]: 0.83 T/C
- Average Tumor Volume (T/C), Day 15 [4, 6]: 0.57 T/C
- Average Tumor Volume (T/C), Day 17 [4, 6]: 0.53 T/C
- lethality [4, 7]: 3/6
- tumor size reduction ([4]; mouse, in vivo): 22%
- Average Tumor Size (T/C) ([4]; mouse, in vivo, HCl): 0.78 and 0.70 and 0.68 and 0.84 and 0.53 and 0.66 and 0.83 and 0.57
- IC50 (murine leukemic P388/0): 5.5 nM
- IC50 (SK-N-FI): 1420 nM
- IC50 (P388/Adr): 2650 nM
- IC50 (CCRF-CEM/Taxol®): 82 nM
- IC50 (CCRF-CEM/VBL100): 1740 nM
- IC50 (CCRF-CEM/VM1): 128 nM
- Tumor Disappearance ([5]; 2 mg/kg i.p. d8,10,12,14,16): 1/10
- Tumor Disappearance ([5]; 3 mg/kg i.p. d8,10,12,14,16): 4/6
- tumor volume reduction ([5]; adriamycin 2 mg/kg i.p. Q2Dx5 from day 8): 28%
- lethality [5, 7]: 4/6
- lethality (mice died of toxicity) [5, 7]: 1/10
- IC50 (MCF-7): 57 nM
